The values below come from US20120101110A1, “Diaza-spiro[5.5]undecanes” (priority 2010, published 2012).

One assay deals with T1, human orexin 2 receptors (Homo sapiens, UniProt O43614).
T1 sequence (O43614 1-444): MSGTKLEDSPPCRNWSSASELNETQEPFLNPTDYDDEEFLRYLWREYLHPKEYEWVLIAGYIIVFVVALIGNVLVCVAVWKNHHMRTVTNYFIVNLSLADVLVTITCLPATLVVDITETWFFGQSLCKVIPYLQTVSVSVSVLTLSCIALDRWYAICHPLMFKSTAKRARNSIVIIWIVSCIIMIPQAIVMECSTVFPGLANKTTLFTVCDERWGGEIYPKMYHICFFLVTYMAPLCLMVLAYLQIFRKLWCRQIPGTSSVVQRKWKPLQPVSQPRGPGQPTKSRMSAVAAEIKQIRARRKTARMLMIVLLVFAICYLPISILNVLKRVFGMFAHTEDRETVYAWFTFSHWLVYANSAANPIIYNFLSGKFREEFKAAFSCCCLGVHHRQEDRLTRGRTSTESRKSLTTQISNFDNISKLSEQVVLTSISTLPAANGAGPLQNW
The experiment in a line: Calcium accumulation in cells (FLIPR), hOx2R. The class given is cell-based. The settings on record: cells expressing human orexin 2 receptor; inhibition of orexin A-induced calcium accumulation; Cheng and Prusoff correction.

In the next assay the target is T2, human orexin 1 receptors (Homo sapiens, UniProt O43613).
T2 sequence (O43613 1-425): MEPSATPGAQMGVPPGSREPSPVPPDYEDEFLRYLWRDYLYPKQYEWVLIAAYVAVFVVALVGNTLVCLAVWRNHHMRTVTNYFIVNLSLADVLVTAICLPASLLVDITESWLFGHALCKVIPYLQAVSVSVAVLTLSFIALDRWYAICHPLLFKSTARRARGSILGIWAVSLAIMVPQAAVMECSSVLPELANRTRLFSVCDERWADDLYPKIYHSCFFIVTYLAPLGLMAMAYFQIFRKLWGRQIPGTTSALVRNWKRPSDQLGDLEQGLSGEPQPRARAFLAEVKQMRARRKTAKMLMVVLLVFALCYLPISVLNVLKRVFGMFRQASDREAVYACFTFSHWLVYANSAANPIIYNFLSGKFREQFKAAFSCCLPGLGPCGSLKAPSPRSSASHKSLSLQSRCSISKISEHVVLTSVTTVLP
The experiment in a line: Calcium accumulation in cells (FLIPR), hOx1R. The settings on record: for inhibition at 10 µM: read-out: FLIPR hOx1R % inhibition value.

Where only a bound is given, the exact number is not on record here.

A word on the Ki: it is the dissociation constant of the complex between target and ligand, obtained from inhibition or displacement. As a reminder, the inhibition is the drop in the measured response relative to a control, in per cent.

`COc1cncc(N2CCC3(CCCN(Cc4c[nH]c5ncccc45)C3=O)CC2)n1` [Example 8, 2-((1H-pyrrolo[2,3-b]pyridin-3-yl)methyl)-9-(6-methoxypyrazin-2-yl)-2,9-diazaspiro[5.5]undecan-1-one]: the Ki on human orexin 2 receptors came out at 276 nM. The inhibition at 10 µM on human orexin 1 receptors was determined as 31%. As for `N#Cc1ccc(N2CCC3(CCCC(=O)N3Cc3cccc4[nH]ccc34)CC2)nc1` [Example 14, 6-(1-((1H-indol-4-yl)methyl)-2-oxo-1,9-diazaspiro[5.5]undecan-9-yl)nicotinonitrile], the Ki on human orexin 2 receptors worked out at 200 nM. Further, the inhibition at 10 µM at human orexin 1 receptors came out at 13%. For `Cc1ccnc(N2CCC3(CCCC(=O)N3Cc3ccccc3-n3nccn3)CC2)n1` [Example 16, 1-(2-(2H-1,2,3-triazol-2-yl)benzyl)-9-(4-methylpyrimidin-2-yl)-1,9-diazaspiro[5.5]undecan-2-one], in that order: 270 nM and 31%. For `Cc1nnc(N2CCC3(CCCN(Cc4c[nH]c5ccccc45)C3=O)CC2)o1` [Example 17, 2-((1H-indol-3-yl)methyl)-9-(5-methyl-1,3,4-oxadiazol-2-yl)-2,9-diazaspiro[5.5]undecan-1-one], the inhibition at 10 µM on human orexin 1 receptors is 12%. On to `O=C1N(Cc2c[nH]c3ncccc23)CCCC12CCN(c1cncc(Cl)n1)CC2` [Example 18, 2-((1H-pyrrolo[2,3-b]pyridin-3-yl)methyl)-9-(6-chloropyrazin-2-yl)-2,9-diazaspiro[5.5]undecan-1-one], for which the Ki amounted to 123 nM at human orexin 2 receptors and 3.2 µM at human orexin 1 receptors. Take `Cc1cncc(N2CCC3(CCCN(Cc4c[nH]c5ncccc45)C3=O)CC2)n1` [Example 19, 2-((1H-pyrrolo[2,3-b]pyridin-3-yl)methyl)-9-(6-methylpyrazin-2-yl)-2,9-diazaspiro[5.5]undecan-1-one]: the Ki on human orexin 2 receptors worked out at 147 nM. Besides, at human orexin 1 receptors, the inhibition at 10 µM was 31%. `Cc1cc(C)nc(N2CCC3(CCCN(Cc4c(-c5ccccc5)noc4C)C3=O)CC2)n1` [Example 23, 9-(4,6-dimethylpyrimidin-2-yl)-2-((5-methyl-3-phenylisoxazol-4-yl)methyl)-2,9-diazaspiro[5.5]undecan-1-one]: the Ki stood at 115 nM at human orexin 2 receptors and 2.88 µM on human orexin 1 receptors. Take `Cc1ccnc(N2CCC3(CCCN(Cc4ccccc4-n4nccn4)C3=O)CC2)n1` [Example 24, 2-(2-(2H-1,2,3-triazol-2-yl)benzyl)-9-(4-methylpyrimidin-2-yl)-2,9-diazaspiro[5.5]undecan-1-one]: the inhibition constant (Ki) on human orexin 2 receptors was 509 nM. Besides, the inhibition at 10 µM on human orexin 1 receptors was below 10%. Regarding `N#Cc1cccc(N2CCC3(CCCN(Cc4ccccc4-n4nccn4)C3=O)CC2)n1` [Example 26, 6-(2-(2-(2H-1,2,3-triazol-2-yl)benzyl)-1-oxo-2,9-diazaspiro[5.5]undecan-9-yl)picolinonitrile], at human orexin 1 receptors, the inhibition at 10 µM was below 10%.

Take `N#Cc1ccnc(N2CCC3(CCCN(Cc4ccccc4-n4nccn4)C3=O)CC2)c1` [Example 27, 2-(2-(2-(2H-1,2,3-triazol-2-yl)benzyl)-1-oxo-2,9-diazaspiro[5.5]undecan-9-yl)isonicotinonitrile]: on human orexin 2 receptors, the Ki was determined as 645 nM. In addition, the inhibition at 10 µM at human orexin 1 receptors was below 10%.

In the case of `Cc1ccnc(N2CCC3(CCCN(Cc4cccc(-c5ncccn5)c4)C3=O)CC2)n1` [Example 30, 9-(4-methylpyrimidin-2-yl)-2-(3-(pyrmidin-2-yl)benzyl)-2,9-diazaspiro[5.5]undecan-1-one], the inhibition constant Ki on human orexin 2 receptors worked out at 686 nM. Further, on human orexin 1 receptors, the inhibition at 10 µM amounted to 48%. For `CN(C)c1ccnc(N2CCC3(CCCN(Cc4c[nH]c5ccccc45)C3=O)CC2)n1` [Example 46, 2-((1H-indol-3-yl)methyl)-9-(4-(dimethylamino)pyrimidin-2-yl)-2,9-diazaspiro[5.5]undecan-1-one], in that order: 143 nM and 25%. For `COc1nccc(N2CCC3(CCCN(Cc4c[nH]c5ccccc45)C3=O)CC2)n1` [Example 47, 2-((1H-indol-3-yl)methyl)-9-(2-methoxypyrimidin-4-yl)-2,9-diazaspiro[5.5]undecan-1-one], in that order: 630 nM and 25%.

On to `O=C1N(Cc2c[nH]c3ccccc23)CCCC12CCN(c1ccnc(Cl)n1)CC2` [Example 48, 2-((1H-indol-3-yl)methyl)-9-(2-chloropyrimidin-4-yl)-2,9-diazaspiro[5.5]undecan-1-one], for which the Ki was determined as 152 nM at human orexin 2 receptors and 3.15 µM at human orexin 1 receptors. As to `O=C1N(Cc2c[nH]c3ccccc23)CCCC12CCN(c1nccc(C(F)(F)F)n1)CC2` [Example 49, 2-((1H-indol-3-yl)methyl)-9-(4-(trifluoromethyl)pyrimidin-2-yl)-2,9-diazaspiro[5.5]undecan-1-one], the inhibitory constant (Ki) at human orexin 2 receptors was 190 nM; on human orexin 1 receptors, 2.18 µM. Turning to `COc1cc(N2CCC3(CCCN(Cc4c[nH]c5ccccc45)C3=O)CC2)ccn1` [Example 61, 2-((1H-indol-3-yl)methyl)-9-(2-methoxypyridin-4-yl)-2,9-diazaspiro[5.5]undecan-1-one], at human orexin 1 receptors, the Ki is 3.84 µM. Turning to `O=C1N(Cc2c[nH]c3ccccc23)CCCC12CCN(c1cccc(O)n1)CC2` [Example 84, 2-((1H-indol-3-yl)methyl)-9-(6-hydroxypyridin-2-yl)-2,9-diazaspiro[5.5]undecan-1-one], the inhibition at 10 µM on human orexin 1 receptors came to 24%. On the same count and under the same terms, with `Cc1ccnc(N2CCC3(CCCC(=O)N3Cc3ccc(-c4ncccn4)cc3)CC2)n1` [Example 90, 9-(4-methylpyrimidin-2-yl)-1-(4-(pyrimidin-2-yl)benzyl)-1,9-diazaspiro[5.5]undecan-2-one] the figure was below 10%. `Cc1ccnc(N2CCC3(CCCC(=O)N3Cc3cccc(-n4nccn4)c3)CC2)n1` [Example 94, 1-(3-(2H-1,2,3-triazol-2-yl)benzyl)-9-(4-methylpyrimidin-2-yl)-1,9-diazaspiro[5.5]undecan-2-one]: the inhibition at 10 µM at human orexin 1 receptors amounted to 36%. Same read-out and setting: with `Cc1ccnc(N2CCC3(CCCC(=O)N3Cc3nnc(-c4ccccc4)o3)CC2)n1` [Example 95, 9-(4-methylpyrimidin-2-yl)-1-((5-phenyl-1,3,4-oxadiazol-2-yl)methyl)-1,9-diazaspiro[5.5]undecan-2-one] the figure was 10%; with `Cc1ccnc(N2CCC3(CCCC(=O)N3Cc3cccc(-c4nc(C)no4)c3)CC2)n1` [Example 97, 1-(3-(3-methyl-1,2,4-oxadiazol-5-yl)benzyl)-9-(4-methylpyrimidin-2-yl)-1,9-diazaspiro[5.5]undecan-2-one], 15%. On the same count and under the same terms, with `Cc1ccnc(N2CCC3(CCCC(=O)N3Cc3cccc(N4CCCC4)n3)CC2)n1` [Example 98, 9-(4-methylpyrimidin-2-yl)-1-((6-(pyrrolidin-1-yl)pyridin-2-yl)methyl)-1,9-diazaspiro[5.5]undecan-2-one] the figure was below 10%. The same measure, in the same setting: with `Cc1cc(N2CCC3(CCCN(Cc4c[nH]c5ccccc45)C3=O)CC2)ccn1` [Example 100, 2-((1H-indol-3-yl)methyl)-9-(2-methylpyridin-4-yl)-2,9-diazaspiro[5.5]undecan-1-one] the figure was below 10%; with `Cc1ccnc(N2CCC3(CCCC(=O)N3Cc3cc(C#N)ccc3F)CC2)n1` [Example 101, 4-fluoro-3-((9-(4-methylpyrimidin-2-yl)-2-oxo-1,9-diazaspiro[5.5]undecan-1-yl)methyl)benzonitrile], below 10%.
